Columns and labels:
[1] = test system: acetyl-α-tubulin in B16 melanoma cells; experiment: Tubulin acetylation Western blot assay; assay type: cell-based, murine; conditions: 24 h, low nanomolar treatment
Method: (§1) […]. B16 melanoma cells were plated at 10^5 cells/well in 12 well plates and allowed to adhere overnight. A 50 mM stock of compound was then added by serial dilutions in complete medium to the indicated concentrations. Cells were incubated for 24 h under humidified conditions (37° C., 5% CO2). Wells were then washed with cold PBS, and cells were lysed in a buffer containing 10 mM Tris-HCl pH 8.0, 10% SDS, […], 100 mM DTT, and 1× protease inhibitor (Roche). Cells were lysed for 30 min on ice and then sonicated for 8 min (8 cycles of 30 s on/30 s rest). Cells were then boiled for 10 min with 6× gel loading buffer and resolved on 4-15% gradient gels and subsequently transferred onto nitrocellulose membranes. Membranes were blocked with 5% milk in PBS-T and detection of specific antigens using antibodies against acetyl-H3 and H3 (Cell Signaling), and acetyl-α-tubulin and α-tubulin (Sigma). Bands were detected by scanning blots with LI-COR Odyssey imaging system using both 700 and 800 channels.

[2] = test system: acetyl-H3 in B16 melanoma cells; experiment: Histone acetylation Western blot assay; assay type: cell-based, murine; conditions: 24 h
Method: as §1

[3] = test system: antigen-specific T-cell responses; experiment: In vivo antigen-specific T-cell responses to vaccination; set-up: species or system mice; conditions: in vivo treatment
From the text: Tubastatin A-treated macrophages are better activators of […] and restore the responsiveness of anergic T-cells in vitro. […] Mechanistically, Tubastatin-A disrupt […] pathway and tip the balance towards immunogenic rather than tolerogenic macrophages.

STAT3 in APCs = experiment: STAT3 phosphorylation and recruitment to IL-10 gene promotor in APCs; assay type: cell-based
From the text: FIG. 26 is a flow chart depicting the experimental design of the in vitro antigen-presenting studies.
Human MCL cells display an enhanced expression of HDAC6. Disruption of HDAC6 in malignant B-cells inhibits their proliferation and is associated with induction of apoptosis. Pharmacologic or genetic disruption of HDAC6 in MCL cells augment their antigen-presenting capabilities leading to better T-cell activation and restoration of function of anergic Tcells in vitro. […] Disclosed herein is the rationale to use HDAC6 specific inhibitor(s) alone or in combination with STAT3 inhibitors in MCL.

[4] = test system: JAK2/STAT3 in B16 murine melanoma cells; experiment: JAK2/STAT3 phosphorylation in B16 melanoma in vivo
[5] = biological target: human, recombinant full-length HDAC1 (Homo sapiens (Human), UniProt Q13547); experiment: HDAC inhibition assay, HDAC1; assay type: biochemical; conditions: HDAC1 and HDAC6, not selective
human, recombinant full-length HDAC1, sequence (Q13547 whole entry): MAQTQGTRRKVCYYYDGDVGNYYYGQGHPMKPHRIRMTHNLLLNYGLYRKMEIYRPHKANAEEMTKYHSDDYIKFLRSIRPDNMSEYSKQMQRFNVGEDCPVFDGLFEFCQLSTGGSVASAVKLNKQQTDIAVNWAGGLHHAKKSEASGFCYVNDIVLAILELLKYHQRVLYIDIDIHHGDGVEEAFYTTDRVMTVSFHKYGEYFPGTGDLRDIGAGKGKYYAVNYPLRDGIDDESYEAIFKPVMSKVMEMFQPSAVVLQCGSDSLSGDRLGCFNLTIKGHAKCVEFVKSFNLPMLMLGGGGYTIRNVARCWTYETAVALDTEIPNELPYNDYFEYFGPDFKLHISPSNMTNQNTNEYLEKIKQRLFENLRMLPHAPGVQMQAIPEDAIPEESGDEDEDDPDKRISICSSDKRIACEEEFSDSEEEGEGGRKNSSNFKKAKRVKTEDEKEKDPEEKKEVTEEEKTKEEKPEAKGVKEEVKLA

[6] = test system: B16 murine melanoma cells; experiment: B16 melanoma cell growth inhibition assay (MTS); assay type: cell-based
Method: The following day, media was changed to that containing various concentrations of HDACi or matched DMSO vehicle concentrations diluted in complete medium done in triplicate. […] Briefly, 20 μL of reagent were added per well and incubated at 37° C. for 3 hours.

## CCCCN(Cc1ccc(C(=O)NO)cc1)C(=O)Nc1ccccc1 [Compound 5g, 4-((1-butyl-3-phenylureido)methyl)-N-hydroxybenzamide]
[1]
  acetyl α-tubulin levels: dose-dependant increase of acetyl α-tubulin levels
[2]; 1 and 10 μM
  histone H3 acetylation: observable increase in histone H3 acetylation
[2]; low nanomolar treatment
  histone H3 acetylation: without a concamanent elevation of histone H3 acetylation

## CN1CCc2c(c3ccccc3n2Cc2ccc(C(=O)NO)cc2)C1 [Tubastatin A]
[3]
  antigen-specific T-cell responses to vaccination: enhances antigen-specific T-cell responses to vaccination
STAT3 in APCs
  STAT3 phosphorylation and recruitment to the IL-10 gene promotor: decreased STAT3 phosphorylation and recruitment
[4]
  JAK2/STAT3 phosphorylation: inhibits JAK2/STAT3 phosphorylation

## COc1ccccc1NC(=O)NCc1ccc(C(=O)NO)cc1 [Compound 1]
[5]
  HDAC inhibitory activity (in words): submicromolar HDAC inhibitory activity

## COc1ccccc1NC(=O)N(CCCO)Cc1ccc(C(=O)NO)cc1 [Compound 5b, N-hydroxy-4-((1-(3-hydroxypropyl)-3-(2-methoxyphenyl)ureido)methyl)-benzamide]
[6]
  growth inhibition of B16 melanoma cell line (in words): performed very poorly in the cellular assay

## O=C(NO)c1ccc(CN(CCc2ccccc2)C(=O)Nc2ccccc2)cc1 [Compound 5h, N-hydroxy-4-((1-phenethyl-3-phenylureido)methyl)benzamide]
[6]
  growth inhibition of B16 melanoma cell line (in words): capable of inhibiting the growth of B16 melanoma cell line

— US9956192B2, “Selective histone deactylase 6 inhibitors” (H. Lee Moffitt Cancer Center and Research Institute, Inc., priority 2012, dated 2018)
